According to patent US20240090503A1, “FUNGICIDAL OXADIAZOLES AND THEIR MIXTURES” (FMC CORPORATION, priority 2020, published 2024):
Marks after values point to notes of the source that are not given here.

Columns and labels:
Assay type in all cases: in vivo
[1] = test system: Zymoseptoria tritici (the causal agent of wheat leaf blotch); assay: Test B: preventive spray on wheat seedlings, wheat leaf blotch, visual disease rating; conditions: wheat seedlings
From the text: General protocol for preparing test suspensions for Tests A-D: the test compounds were first dissolved in acetone in an amount equal to 3% of the final volume and then suspended at the desired concentration (in ppm) in acetone and purified water (50/50 mix by volume) containing 250 ppm of the surfactant PEG400 (polyhydric alcohol esters). The resulting test suspensions were then used in Tests A-D.
The test suspension was sprayed to the point of run-off on wheat seedlings. The following day the seedlings were inoculated with a spore suspension of Zymoseptoria tritici (the causal agent of wheat leaf blotch) and incubated in a saturated atmosphere at 24° C. for 48 h, and then moved to a growth chamber at 20° C. for 17 days, after which time visual disease ratings were made.
The test results for Tests A-C presented in Table A below for compounds of Formula 1 illustrate the fungicidal activity of component (a) contributing to the plant disease control utility of compositions comprising component (a) in combination with component (b) according to the present invention. In the Table, a rating of 100 indicates 100% disease control and a rating of 0 indicates no disease control (relative to the controls). A dash (-) indicates the compound was not tested. The test suspensions were sprayed at the concentration listed in the column “Rate in ppm”, unless otherwise indicated. An asterisk “*” next to the rating indicates a 250 ppm test suspension was used, a double asterisk “**” next to the rating indicates a 100 ppm test suspension was used, and a triple asterisk “***” next to the rating indicates a 50 ppm test suspension was used.

[2] = test system: Puccinia recondita f. sp. tritici (the causal agent of wheat leaf rust); assay: Test C: preventive spray on wheat seedlings, wheat leaf rust, visual disease rating; conditions: wheat seedlings
How it was run: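 Wheat seedlings sprayed to run-off with compound in acetone/water (50/50) with 250 ppm PEG400, then inoculated with spores the following day. After 24 h saturated humidity at 20° C. and 6 days in growth chamber at 20° C., disease rated visually as % control relative to untreated controls.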

[3] = test system: Phakopsora pachyrhizi (the causal agent of Asian soybean rust); assay: Test A: preventive spray on soybean seedlings, Asian soybean rust, visual disease rating; conditions: soybean seedlings
How it was run: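 Compound in acetone/water (50/50) with 250 ppm PEG400 sprayed to run-off on soybean seedlings; inoculated next day with Phakopsora pachyrhizi spores. Held 24 h at 22° C in saturated atmosphere, then 8 days in a 22° C growth chamber before visual rating as % disease control relative to controls.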

[4] = 250 ppm test suspension, 100 = 100% disease control
[5] = 250 ppm test suspension, 100 = 100% disease control, 0 = no control
[6] = test suspension 10 ppm, 100 = 100% disease control, 0 = no control
[7] = 10 ppm test suspension, 100 = 100% disease control, 0 = no control
[8] = test suspension 100 ppm (** next to rating)

Structure (SMILES): OC(c1ccc(-c2noc(C(F)(F)F)n2)cc1)c1cccc(Cl)c1 (stereo not drawn) [compound 499]
- Test B disease control rating [1, 4]: 48* %
- Test C disease control rating [2, 5]: 100%
- Test A disease control rating [3, 5]: 100%

Structure (SMILES): CCOC(=O)c1nn(Cc2ccc(-c3noc(C(F)(F)F)n3)cc2)nc1Br [compound 84]
- Test B disease control rating ([1]; test suspension 250 ppm): 66%
- Test C disease control rating ([2]; test suspension 250 ppm): 100%
- Test A disease control rating ([3]; test suspension 250 ppm): 100%

Structure (SMILES): CNC(=O)C1=NOC(Cc2ccc(-c3noc(C(F)(F)F)n3)cc2)C1 (stereo not drawn) [compound 165]
- Test B disease control rating ([1]; test suspension 260 ppm): 95%
- Test C disease control rating ([2]; test suspension 260 ppm): 100%
- Test A disease control rating ([3]; test suspension 260 ppm): 100%

Structure (SMILES): N#CCNC(=O)c1coc(Cc2ccc(-c3noc(C(F)(F)F)n3)cc2)n1 [compound 258]
- Test B disease control rating ([1]; test suspension 250 ppm): 99* %
- Test C disease control rating ([2]; test suspension 10 ppm): 99%
- Test A disease control rating [3, 6]: 100%

Structure (SMILES): O=c1sc2ccccc2n1Cc1ccc(-c2noc(C(F)(F)F)n2)cc1 [compound 156]
- Test B disease control rating ([1]; test suspension 255 ppm): 86%
- Test C disease control rating ([2]; test suspension 255 ppm): 100%
- Test A disease control rating ([3]; test suspension 255 ppm): 100%

Structure (SMILES): O=C1CCN(Cc2ccc(-c3noc(C(F)(F)F)n3)cc2)CC1 [compound 150]
- Test B disease control rating ([1]; test suspension 255 ppm): 19%
- Test C disease control rating ([2]; test suspension 255 ppm): 100%
- Test A disease control rating ([3]; test suspension 255 ppm): 100%

Structure (SMILES): FC(F)(F)c1nc(-c2ccc(Cn3cc(Br)cn3)cc2)no1 [compound 163]
- Test B disease control rating ([1]; test suspension 250 ppm): 0%
- Test C disease control rating ([2]; test suspension 250 ppm): 100%
- Test A disease control rating ([3]; test suspension 250 ppm): 100%

Structure (SMILES): COC(=O)c1ccc(CCn2cc(-c3noc(C(F)(F)F)n3)cn2)cc1 [compound 310]
- Test B disease control rating ([1]; test suspension 250 ppm): 0* %
- Test C disease control rating ([2]; test suspension 50 ppm): 0%
- Test A disease control rating ([3]; test suspension 50 ppm): 0%

Structure (SMILES): Cn1c(=O)n(Cc2ccc(-c3noc(C(F)(F)F)n3)cc2)c2ccccc21 [Compound 159, 1,3-dihydro-1-methyl-3-[[4-[5-(trifluoromethyl)-1,2,4-oxadiazol-3-yl]phenyl]methyl]-2H-benzimidazol-2-one]
- pest or weed control at 260 µg/mL ([1]; Zymoseptoria tritici, 456 h, test suspension 260 ppm): 87%
- pest or weed control at 260 µg/mL ([2]; Puccinia recondita, 168 h, test suspension 260 ppm): 100%
- pest or weed control at 260 µg/mL ([3]; Phakopsora pachyrhizi, 216 h, test suspension 260 ppm): 100%

Structure (SMILES): COC(=O)c1ccc(COc2ccc(-c3noc(C(F)(F)F)n3)cc2)cc1 [compound 354]
- Test B disease control rating ([1]; test suspension 250 ppm): 20* %
- Test C disease control rating ([2]; test suspension 10 ppm): 0%
- Test A disease control rating [3, 6]: 0%

Structure (SMILES): CN(C)C(=O)c1coc(Cc2ccc(-c3noc(C(F)(F)F)n3)cc2)n1 [compound 315]
- Test B disease control rating ([1]; test suspension 250 ppm): 97* %
- Test C disease control rating ([2]; test suspension 10 ppm): 99%
- Test A disease control rating [3, 6]: 100%

Structure (SMILES): O=C(O)CON=Cc1cnn(Cc2ccc(-c3noc(C(F)(F)F)n3)cc2)c1 [compound 26]
- Test B disease control rating ([1]; test suspension 250 ppm): 46* %
- Test C disease control rating ([2]; test suspension 250 ppm): 100%
- Test A disease control rating ([3]; test suspension 250 ppm): 100%

Structure (SMILES): OC(c1ccc(F)cc1)c1ccc(-c2noc(C(F)(F)F)n2)cc1 (stereo not drawn) [compound 500]
- Test B disease control rating [1, 4]: 5* %
- Test C disease control rating [2, 5]: 100%
- Test A disease control rating [3, 5]: 100%

Structure (SMILES): CCOC(=O)C1CCN(Cc2ccc(-c3noc(C(F)(F)F)n3)cc2)C1 (stereo not drawn) [compound 124]
- Test B disease control rating ([1]; test suspension 260 ppm): 50%
- Test C disease control rating ([2]; test suspension 260 ppm): 100%
- Test A disease control rating ([3]; test suspension 260 ppm): 100%

Structure (SMILES): N#CC1(NC(=O)c2coc(Cc3ccc(-c4noc(C(F)(F)F)n4)cc3)n2)CC1 [compound 231]
- Test B disease control rating ([1]; test suspension 250 ppm): 95* %
- Test C disease control rating ([2]; test suspension 10 ppm): 97%
- Test A disease control rating [3, 6]: 100%

Structure (SMILES): COCCNC(=O)c1csc(COc2ccc(-c3noc(C(F)(F)F)n3)cc2)n1 [compound 469]
- Test B disease control rating [1, 4]: 65* %
- Test C disease control rating [2, 7]: 86%
- Test A disease control rating [3, 7]: 96%

Structure (SMILES): O=C(NCCC(F)(F)F)c1csc(Cc2ccc(-c3noc(C(F)(F)F)n3)cc2)n1 [compound 397]
- Test B disease control rating [1, 4]: 82* %
- Test C disease control rating [2, 7]: 98%
- Test A disease control rating [3, 7]: 100%

Structure (SMILES): O=C(NC1CCC(F)(F)CC1)c1coc(Cc2ccc(-c3noc(C(F)(F)F)n3)cc2)n1 [compound 395]
- Test B disease control rating [1, 4]: 0* %
- Test C disease control rating [2, 7]: 97%
- Test A disease control rating [3, 7]: 95%

Structure (SMILES): O=C(c1coc(Cc2ccc(-c3noc(C(F)(F)F)n3)cc2)n1)N1CCCC1 [compound 227]
- Test B disease control rating ([1]; test suspension 250 ppm): 99* %
- Test C disease control rating ([2]; test suspension 10 ppm): 97%
- Test A disease control rating [3, 6]: 100%

Structure (SMILES): O=C(NCC(F)(F)C(F)(F)F)c1coc(Cc2ccc(-c3noc(C(F)(F)F)n3)cc2)n1 [compound 328]
- Test B disease control rating ([1]; test suspension 250 ppm): 0* %
- Test C disease control rating ([2]; test suspension 10 ppm): 100%
- Test A disease control rating [3, 6]: 100%

Structure (SMILES): O=C(NCC1CC1)c1csc(Cc2ccc(-c3noc(C(F)(F)F)n3)cc2)c1 [compound 290]
- Test B disease control rating ([1]; test suspension 250 ppm): 53* %
- Test C disease control rating ([2]; test suspension 10 ppm): 100%
- Test A disease control rating [3, 6]: 100%

Structure (SMILES): N#Cc1coc(Cc2ccc(-c3noc(C(F)(F)F)n3)cc2)n1 [compound 256]
- Test B disease control rating ([1]; test suspension 250 ppm): 98* %
- Test C disease control rating ([2]; test suspension 10 ppm): 99%
- Test A disease control rating [3, 6]: 100%

Structure (SMILES): CCOC(=O)c1ccn(Cc2ccc(-c3noc(C(F)(F)F)n3)cc2)n1 [compound 114]
- Test B disease control rating ([1]; test suspension 250 ppm): 0%
- Test C disease control rating ([2]; test suspension 250 ppm): 100%
- Test A disease control rating ([3]; test suspension 250 ppm): 100%

Structure (SMILES): CCCOC(=O)c1cnn(Cc2ccc(-c3noc(C(F)(F)F)n3)cc2)c1 [compound 60]
- Test B disease control rating [1, 8]: 75** %
- Test C disease control rating ([2]; test suspension 10 ppm): 100%
- Test A disease control rating [3, 6]: 100%

Structure (SMILES): CCOC(=O)c1cnn(Cn2cc(-c3noc(C(F)(F)F)n3)cn2)c1 [compound 305]
- Test B disease control rating ([1]; test suspension 250 ppm): 0* %
- Test C disease control rating ([2]; test suspension 50 ppm): 0%
- Test A disease control rating ([3]; test suspension 50 ppm): 44%

Structure (SMILES): O=C1N(Cc2ccc(-c3noc(C(F)(F)F)n3)cc2)c2ccccc2C1(F)F [compound 161]
- Test B disease control rating ([1]; test suspension 265 ppm): 33%
- Test C disease control rating ([2]; test suspension 265 ppm): 99%
- Test A disease control rating ([3]; test suspension 265 ppm): 100%

Structure (SMILES): CC(C)(C#N)NC(=O)c1coc(Cc2ccc(-c3noc(C(F)(F)F)n3)cc2)n1 [compound 230]
- Test B disease control rating ([1]; test suspension 250 ppm): 99* %
- Test C disease control rating ([2]; test suspension 10 ppm): 99%
- Test A disease control rating [3, 6]: 100%

Structure (SMILES): OC(c1ccc(-c2noc(C(F)(F)F)n2)cc1)c1cccc(F)c1 (stereo not drawn) [compound 498]
- Test B disease control rating [1, 4]: 43* %
- Test C disease control rating [2, 7]: 0%
- Test A disease control rating [3, 7]: 100%

Structure (SMILES): COCC(COC)NC(=O)c1coc(Cc2ccc(-c3noc(C(F)(F)F)n3)cc2)n1 [compound 279]
- Test B disease control rating ([1]; test suspension 250 ppm): 94* %
- Test C disease control rating ([2]; test suspension 10 ppm): 100%
- Test A disease control rating [3, 6]: 100%

Structure (SMILES): C=CCOC(=O)c1cnn(Cc2ccc(-c3noc(C(F)(F)F)n3)cc2)c1 [compound 166]
- Test B disease control rating [1, 8]: 90** %
- Test C disease control rating ([2]; test suspension 10 ppm): 100%
- Test A disease control rating [3, 6]: 100%

Structure (SMILES): COCCNC(=O)c1cccc(Cc2ccc(-c3noc(C(F)(F)F)n3)cc2)c1 [compound 284]
- Test B disease control rating ([1]; test suspension 250 ppm): 91* %
- Test C disease control rating ([2]; test suspension 10 ppm): 100%
- Test A disease control rating [3, 6]: 100%

Structure (SMILES): COC(=O)c1cnc(Oc2ccc(-c3noc(C(F)(F)F)n3)cc2)s1 [compound 452]
- Test B disease control rating [1, 4]: 59* %
- Test C disease control rating [2, 7]: 0%
- Test A disease control rating [3, 7]: 81%

Structure (SMILES): O=C(NCC1CC1)c1csc(Cc2ccc(-c3noc(C(F)(F)F)n3)s2)n1 [compound 202]
- Test B disease control rating ([1]; test suspension 250 ppm): 83%
- Test C disease control rating ([2]; test suspension 250 ppm): 100%
- Test A disease control rating ([3]; test suspension 250 ppm): 100%

Structure (SMILES): FC(F)(F)c1nc(-c2ccc(CN3CCOCC3)cc2)no1 [compound 96]
- Test B disease control rating ([1]; test suspension 250 ppm): 0%
- Test C disease control rating ([2]; test suspension 250 ppm): 99%
- Test A disease control rating ([3]; test suspension 250 ppm): 100%

Structure (SMILES): CC(C)COC(=O)c1cnn(Cc2ccc(-c3noc(C(F)(F)F)n3)cc2)c1 [compound 171]
- Test B disease control rating [1, 8]: 37** %
- Test C disease control rating ([2]; test suspension 10 ppm): 100%
- Test A disease control rating [3, 6]: 100%

Structure (SMILES): FC(F)(F)c1nc(-c2ccc(Cn3nc4ccccc4n3)cc2)no1 [compound 93]
- Test B disease control rating ([1]; test suspension 250 ppm): 39%
- Test C disease control rating ([2]; test suspension 250 ppm): 99%
- Test A disease control rating ([3]; test suspension 250 ppm): 100%

Structure (SMILES): ON=Cc1cnn(Cc2ccc(-c3noc(C(F)(F)F)n3)cc2)c1 (mixture of isomers) [compound 20]
- Test B disease control rating ([1]; test suspension 250 ppm): 99%
- Test C disease control rating ([2]; test suspension 250 ppm): 100%
- Test A disease control rating ([3]; test suspension 250 ppm): 100%
